From patent US20180214395A1 (priority 2017, published 2018)
Values joined by “and” are separate entries in the source; they are usually repeats but may differ in a detail not shown here. Equal values may be shown once. Where a name gives a salt, the structure may show the parent alone.

Legend:
[1] = target: T1, serotonin transporter (SERT or 5-HT) (Rattus norvegicus, UniProt P31652)
[2] = target: T2, PCP (antagonist radioligand) (Rattus norvegicus, UniProt P35439); experiment: Binding assay PCP (antagonist radioligand); conditions: Study 2; Hill coefficient
T2 construct: PCP; rat cerebral; [^3H]TCP; tissue Eurofins Cerep; host or cells: rat cerebral cortex

[3] = target: T1, serotonin transporter (SERT or 5-HT); experiment: biochemical
[4] = target: T3, norepinephrine transporter (NET) (Rattus norvegicus, UniProt Q63380); experiment: Norepinephrine uptake assay; format: biochemical; conditions: for norepinephrine uptake, % inhibition: 1.0E−05 M
T3 construct: tissue Eurofins Cerep; host or cells: rat hypothalamus synaptosomes (own knowledge of the vendor's assay)
T3 sequence (Q63380 1-617): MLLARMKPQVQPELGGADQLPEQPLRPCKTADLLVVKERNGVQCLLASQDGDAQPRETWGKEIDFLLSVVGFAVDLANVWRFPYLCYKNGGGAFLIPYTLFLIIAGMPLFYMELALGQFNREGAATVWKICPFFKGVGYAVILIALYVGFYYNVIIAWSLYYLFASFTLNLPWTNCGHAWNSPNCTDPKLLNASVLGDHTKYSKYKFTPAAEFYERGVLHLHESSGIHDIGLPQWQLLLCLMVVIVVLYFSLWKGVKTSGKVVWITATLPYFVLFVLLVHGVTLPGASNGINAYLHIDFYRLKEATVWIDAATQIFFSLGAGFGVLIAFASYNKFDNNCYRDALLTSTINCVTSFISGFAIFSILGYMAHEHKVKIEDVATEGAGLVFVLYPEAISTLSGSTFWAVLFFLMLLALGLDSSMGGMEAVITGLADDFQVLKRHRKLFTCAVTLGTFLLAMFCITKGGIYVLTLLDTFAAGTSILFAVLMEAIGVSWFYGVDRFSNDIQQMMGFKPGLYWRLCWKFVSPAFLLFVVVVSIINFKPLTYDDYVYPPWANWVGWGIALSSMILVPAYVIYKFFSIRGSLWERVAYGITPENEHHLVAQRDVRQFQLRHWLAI

[5] = Novelty-suppressed feeding test (NSFT); format: in vivo; conditions: rat, 72 hr after single dose
[6] = target: NMDA (antagonist radioligand); experiment: Binding assay NMDA (antagonist radioligand); conditions: Study 1; reference compound
μ (MOP) (h) = μ (MOP) (h) (Homo sapiens, UniProt P35372)
μ (MOP) (h), sequence (P35372 whole entry): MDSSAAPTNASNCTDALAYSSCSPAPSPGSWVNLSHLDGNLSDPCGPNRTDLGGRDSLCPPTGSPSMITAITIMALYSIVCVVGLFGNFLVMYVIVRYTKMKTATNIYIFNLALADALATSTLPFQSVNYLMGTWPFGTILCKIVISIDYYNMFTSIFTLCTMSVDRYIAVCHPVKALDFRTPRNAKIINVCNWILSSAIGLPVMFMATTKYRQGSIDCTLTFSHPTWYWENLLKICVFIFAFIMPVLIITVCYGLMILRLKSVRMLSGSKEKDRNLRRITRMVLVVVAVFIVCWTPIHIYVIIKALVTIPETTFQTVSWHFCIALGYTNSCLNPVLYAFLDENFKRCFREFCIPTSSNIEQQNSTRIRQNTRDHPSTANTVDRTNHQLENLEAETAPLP

opioid receptors = conditions: cited from earlier work
[7] = mouse hot plate test; cited from earlier work
Forced swim test = format: in vivo, rat
[8] = Locomotor activity assessment (distance traveled, rearing); format: in vivo, rat
[9] = Female urine sniffing test (FUST); format: in vivo; conditions: rat; 24 hr after single dose; ketamine 10 mg/kg ip, d-methadone 20 mg/kg sc
[10] = 10 mg/kg, single administration 24 hours prior, 60 counts per subject
[11] = Vehicle minus treatment, 10 mg/kg
[12] = 10 mg/kg, 24 hours prior to testing
[13] = rat, 24 h after dosing, one-way ANOVA

T1 sequence (P31652 whole entry): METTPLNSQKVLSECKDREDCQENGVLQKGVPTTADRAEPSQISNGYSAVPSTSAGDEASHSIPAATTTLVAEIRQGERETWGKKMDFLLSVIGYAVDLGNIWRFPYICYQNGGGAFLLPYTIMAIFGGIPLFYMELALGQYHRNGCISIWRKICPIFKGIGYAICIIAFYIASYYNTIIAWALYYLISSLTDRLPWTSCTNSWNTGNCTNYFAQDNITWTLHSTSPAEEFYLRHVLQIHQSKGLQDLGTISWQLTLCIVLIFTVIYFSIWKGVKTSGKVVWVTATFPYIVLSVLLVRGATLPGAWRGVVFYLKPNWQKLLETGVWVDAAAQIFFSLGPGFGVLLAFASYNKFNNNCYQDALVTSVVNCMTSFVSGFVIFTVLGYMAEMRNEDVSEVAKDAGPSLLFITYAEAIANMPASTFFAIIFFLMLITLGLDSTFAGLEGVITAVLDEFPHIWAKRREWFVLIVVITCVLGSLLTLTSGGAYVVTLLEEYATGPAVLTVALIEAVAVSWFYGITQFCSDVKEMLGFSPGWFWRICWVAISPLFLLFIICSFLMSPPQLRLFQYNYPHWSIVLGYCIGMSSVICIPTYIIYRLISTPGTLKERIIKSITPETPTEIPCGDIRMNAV

[2H]C([2H])([2H])CC(=O)C(C[C@H](C)N(C([2H])([2H])[2H])C([2H])([2H])[2H])(c1ccccc1)c1ccccc1
inhibition [1]: 90.5% | nH [2]: 0.8 | IC50 [3]: 1100 nM | IC50 [4]: 7.2 µM | norepinephrine uptake, % inhibition [4]: 61.4%

CCC(=O)C(CC(C)N(C)C)(c1ccccc1)c1ccccc1 (racemic) [methadone]
NSFT: latency to feed in the home cage [5]: neither ketamine or methadone influenced

O=C(O)[C@@H]1C[C@H](CP(=O)(O)O)CCN1 [CGS 19755]
IC50 [6]: 1300 nM | Ki [6]: 1100 nM

C[C@@H](NC(=O)[C@@H](N)Cc1ccc(O)cc1)C(=O)NCC(=O)N(C)[C@@H](Cc1ccccc1)C(=O)NCCO [DAMGO]
nH (μ (MOP) (h)): 0.9 and 0.8 and 0.7 and 1.0 and 0.6

C[C@]12N[C@H](Cc3ccccc31)c1ccccc12 [MK 801]
nH [2]: 0.9 and 1.1

CC[C@@H](c1cccc(O)c1)[C@@H](C)CN(C)C [TapentadolHydrochloride]
inhibition [1]: 91.1% and 87.2% and 89.1%

CCC(=O)C(c1ccccc1)(c1ccccc1)C(C)CN(C)C (stereo not drawn) [d-isomethadone]
Potency, times less potent than l-isomethadone (opioid receptors): 50 times

C[C@H](CN1CCOCC1)C(C(=O)N1CCCC1)(c1ccccc1)c1ccccc1 [d-moramide]
Potency, times more potent than l-moramide [7]: 700 times

CNC1(c2ccccc2Cl)CCCCC1=O (centres unmarked) [ketamine, reference compound]
Climbing, Mean frequency (Forced swim test; [10]): 7.600 | Immobility, Mean frequency (Forced swim test; [10]): 34.100 | Swimming, Mean frequency (Forced swim test; [10]): 18.300 | Climbing, Mean Diff. (Fisher's PLSD) (Forced swim test; [11]): −3.822 | Immobility, Mean Diff. (Fisher's PLSD) (Forced swim test; [11]): 14.900 | Swimming, Mean Diff. (Fisher's PLSD) (Forced swim test; [11]): −11.078 | Forced swim test: frequency of immobility vs vehicle (Forced swim test; rat, 24 h after single dose, d-methadone 10, 20 and 40 mg/kg SC, ketamine 10 mg/kg IP): significantly decreased | Forced swim test: frequency of swimming vs vehicle (Forced swim test; rat, d-methadone 10, 20 and 40 mg/kg SC, ketamine 10 mg/kg IP): significantly increased | Distance traveled min 1-5, Mean [8, 12]: 586.333 | Rearing min 1-5, Mean [8, 12]: 20.500 | Total Distance Traveled, Mean [8, 12]: 2464.333 cm/60 min | Total Rearing, Mean ([8]; 10 mg/kg, 24 hours prior to testing, 60 minute test): 85.000 | Locomotor activity: total distance traveled (60 min) [8, 13]: no significant effect | Locomotor activity: total rearing frequency (60 min) [8, 13]: no significant effect | FUST: time sniffing water [9]: no effect | FUST: time spent sniffing female urine vs vehicle [9]: increases | NSFT: latency to feed in the home cage [5]: neither ketamine or methadone influenced | NSFT: latency to eat in a novel open field ([5]; ketamine 10 mg/kg ip, d-methadone 20 mg/kg sc): significantly decreases

CC[C@@H](c1cccc(O)c1)[C@@H](C)CN(C)C [tapentadol hydrochloride, reference compound]
inhibition [1]: 89.1% | IC50 [3]: 850 nM | IC50 [4]: 0.26 µM | norepinephrine uptake, % inhibition [4]: 94.1%
